Reference: patent publication US8278327B2, “PDE10 inhibitors and related compositions and methods” (Omeros Corporation, priority 2006, dated 2012)
Each block holds one compound with its values, some of them ahead of it.

Experiments:
C57BL/6 male mice [1] = assay: PCP-induced hyperactivity; assay type: in vivo; details: PCP 5 mg/kg, p<0.001
Description: Psychostimulant-induced hyperactivity is measured by injecting animals with PCP or amphetamine and monitoring the animals' activity levels in the VersaMax chambers (Accuscan Instruments, Columbus, Ohio) measuring 40×40 cm. Locomotor activity is detected by photobeam breaks as the animal crosses each beam. The animal is placed in the center of the field and left undisturbed for a period of time (20 min to 2 hr) to measure its spontaneous activity in a novel environment. Measurements used to assess locomotor activity include: horizontal activity, total distance traveled, vertical activity (rearing events—animal raises up on hindlimbs), rotation, stereotypy, and distance traveled in the center compared to total distance traveled (center:total distance ratio). Psychostimulants, including dopamine agonist amphetamine and NMDA antagonist PCP, induce psychosis-like conditions manifested as hyperactivity and increased stereotypic behavior. Known antipsychotics are able to reverse psychostimulant-induced hyperactivity and increased stereotypy.

C57BL/6 male mice [2] = assay: Conditioned avoidance response (CAR); assay type: in vivo
Excerpt: Conditioned avoidance response (CAR) is a behavioral test to evaluate antipsychotic effect of a test compound. It utilizes a shuttle box (Med Associates, St. Albans, Vt.) with two equal chambers separated by a retractable door. Each chamber is fitted with metal grid floor that is capable of delivering electric shocks independently. A computer program is used to implement the testing paradigm as well as record the animal's movement between the two chambers through infrared beam sensors. The testing paradigm is as the follows. A mouse is placed into one chamber. A light (conditioned stimulus, CS) comes on. Five seconds later, mild electric shocks (0.4 mA) (unconditioned stimulus, US) are delivered to the chamber where the mouse is located (as detected by infrared beams) until the mouse escapes to the adjacent chamber or until 10 sec has elapsed. The US and CS always co-terminate. With randomized inter-trial intervals averaging 15 sec, 30 such CS-US pairing trials are given to each mouse each day. For each trial, an escape response is registered if the mouse crosses to the other chamber after being shocked (i.e., during the 10-sec US period), and an avoidance response is registered if the mouse crosses to the other chamber during the first 5-sec CS only period. The animals are trained in such paradigm for 15-20 days, during which the average percentage of avoidance responses will improve to 60-80%. […] These trained animals are then used for compound testing using the same paradigm.
C57BL/6 male mice were trained in the CAR paradigm to predict and avoid the noxious stimulus, reaching a plateau of approximately 20-25 avoidance responses per 30 trials (“training plateau”) each day. The mice were then injected with compound or vehicle via i.p., and 20 minutes later they were tested for 30 trials in the CAR paradigm. Vehicle treatment and compound treatment were given to the same animals on alternating days, and the effect of compound in reducing avoidance response was analyzed through within-subject comparison (paired t-test).

PDE10 = details: Soderling and Beavo 2000, read-out: IC50 (50% inhibitory concentration); cited from earlier work
[3] = biological target: T1, recombinant human PDE 10A1 (Homo sapiens, UniProt Q9Y233); assay: PDE10 biochemical assay (modified two-step method of Thompson and Appleman, or SPA with [3H]-cGMP); details: PDE10 inhibition
T1 construct: made in house; host or cells: Sf9 insect cells, baculovirus
T1 sequence (Q9Y233 1-779 isoform Q9Y233-1): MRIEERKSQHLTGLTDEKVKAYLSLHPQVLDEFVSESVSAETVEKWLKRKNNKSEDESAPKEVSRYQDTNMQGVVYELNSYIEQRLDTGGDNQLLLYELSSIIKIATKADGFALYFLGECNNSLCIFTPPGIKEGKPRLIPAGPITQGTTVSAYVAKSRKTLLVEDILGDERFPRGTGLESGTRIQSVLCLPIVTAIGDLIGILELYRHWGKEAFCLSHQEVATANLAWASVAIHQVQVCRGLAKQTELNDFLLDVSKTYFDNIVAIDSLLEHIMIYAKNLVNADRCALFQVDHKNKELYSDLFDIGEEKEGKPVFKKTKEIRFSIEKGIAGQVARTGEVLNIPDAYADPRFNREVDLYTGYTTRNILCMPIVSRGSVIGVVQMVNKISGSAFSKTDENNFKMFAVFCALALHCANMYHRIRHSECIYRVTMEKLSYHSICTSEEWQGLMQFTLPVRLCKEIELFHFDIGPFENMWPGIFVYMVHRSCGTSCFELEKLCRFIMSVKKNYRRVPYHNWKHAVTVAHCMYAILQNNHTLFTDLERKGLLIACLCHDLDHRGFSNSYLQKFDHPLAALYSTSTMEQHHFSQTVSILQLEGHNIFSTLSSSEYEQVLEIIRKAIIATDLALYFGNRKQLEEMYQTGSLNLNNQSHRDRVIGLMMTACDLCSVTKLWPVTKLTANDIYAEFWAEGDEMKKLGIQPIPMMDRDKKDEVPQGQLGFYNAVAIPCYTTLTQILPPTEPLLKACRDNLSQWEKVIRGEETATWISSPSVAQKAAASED
Description: Compounds of this invention may be assayed to determine their IC50 values by a modification of the two-step method of Thompson and Appleman (Biochemistry 10; 311-316; 1971). In short, cAMP is spiked with (^3H)cAMP and incubated with PDE10 and various concentrations of a compound of structure (I). After the appropriate incubation time, the reaction is terminated by heating. The mixture is then subjected to treatment with snake venom phosphatase. The phosphatase hydrolyzes any AMP in the mixture, but leaves unreacted cAMP intact. Thus, by separating cAMP from the mixture and determining its concentration (by radiography), the percent of inhibition can be determined. IO50 values can be calculated by performing the experiment at several concentrations using standard graphical means. A detailed description of the actual technique used for IC50 assays are shown in Example 8.
The phosphodiesterase (PDE) assay was performed using recombinant human PDE 1A3, 2A3, 3 catalytic region, 4 catalytic region, 5 catalytic region, 7A, 8A, 9A2, 10A1 and 11A1 enzymes expressed in a baculoviral system using Sf9 cells. PDE activity was measured using a modification of the two-step method of Thompson and Appleman described above which was adapted for 96 well plate format. […] The final assay volume was 110 μl with assay buffer (10 mM MgCl2; 40 mM Tris.HCl; pH 7.4). Reactions were initiated with enzyme and incubated with (^3H)—substrate and substance for 20 minutes at 30° C. The reaction was terminated by denaturing the enzyme (heating the reaction to 70° C. for 2 minutes). […] The soluble fraction (50 μl) was then added to microscint-20 (200 μl) and counted on a Top Count Plate reader. Radioactivity units were plotted against inhibitor concentration and IC50 values obtained using Graph Pad Prism software.
Alternatively, phosphodiesterase activity was measured by scintillation proximity assay (SPA) with [^3H]-cGMP as substrate. […] Inhibition was evaluated at 8 concentrations in duplicate. […] The mixture was shaken, allowed to settle for 3 hours, and counted in a Wallac plate counter. […]

C57BL/6 male mice [4] = assay: Amphetamine-induced hyperactivity; assay type: in vivo; details: 50 mg/kg i.p., amphetamine 5 mg/kg, vs vehicle+amph control, p<0.01
C57BL/6 male mice [5] = details: 50 mg/kg i.p., 30 min after injection, vs vehicle control
C57BL/6 male mice [6] = assay: Novel object recognition test (PCP-disrupted); assay type: in vivo; details: 10 mg/kg i.p. with PCP 5 mg/kg, tested 24 h later, p<0.01 vs PCP-treated group
Description: The antipsychotic effect of a test compound may also be evaluated by a novel object recognition test. In a novel object recognition test, mice are housed singly for 1-2 days and then injected with vehicle, PCP, or PCP plus the test compound. Twenty minutes after injection, the mice are presented with and allowed to explore two identical objects for 30 minutes. At the end of the exploration period the objects are removed. Twenty-four hours later each mouse is presented with a pair of objects, one familiar and one novel. After a variable delay, the mice begin to explore the objects. The time exploring each object is measured for 4 minutes starting from the first approach to either object. The fraction of total exploration time spent studying the novel object is recorded as a measure of novelty recognition.
At the end of the exploration period, the objects were removed. Twenty-four hours later, each mouse was presented with a pair of objects, one familiar and one novel, and the time exploring each object was measured for 4 minutes starting from the first approach to either object.

[7] = 50 mg/kg i.p., vs vehicle+PCP control
[8] = 0.2 mg/kg i.p., vs vehicle+PCP control

Compound: COc1cc(/C=N/NC(=O)CSc2cc(C)nc3ccccc23)cc(OC)c1O [Compound 5-110]
hyperactivity induced by PCP (C57BL/6 male mice [1]; 30 mg/kg): significantly reduces | stereotypy induced by PCP (C57BL/6 male mice [1]; 30 mg/kg): significantly reduces | number of avoidance response (C57BL/6 male mice [2]; 10 mg/kg, procedure as in Example 12, p<0.01): significantly reduces

Compound: CC(C)Cn1c(=O)n(C)c(=O)c2[nH]cnc21 [IBMX]
IC50 (PDE10): 2600 nM

Compound: COc1ccc(/C=N/NC(=O)CSc2cc(C)nc3ccccc23)cc1OC [Compound 5-1, (E)-N′-(3,4-dimethoxybenzylidene)-2-(2-methylquinolin-4-ylthio)acetohydrazide]
IC50 [3]: ≤ 1000 nM | hyperactivity induced by PCP (C57BL/6 male mice [1]; [7]): completely abolishes | stereotypy induced by PCP (C57BL/6 male mice [1]; [7]): completely abolishes | hyperactivity induced by amphetamine (C57BL/6 male mice [4]): partially but significantly reduce | stereotypy induced by amphetamine (C57BL/6 male mice [4]): partially but significantly reduce | number of avoidance response (C57BL/6 male mice [2]; 30 mg/kg i.p., tested 20 min later, 30 trials, p<0.001): significantly reduces | startle response (C57BL/6 male mice [5]): does not affect | PPI at 3 different prepulse levels (C57BL/6 male mice [5]; p<0.05, p<0.01): significantly increases

IC50 [3]: ≤ 1000 nM
Compound: COc1cc(/C=N/NC(=O)CC2Sc3ccccc3NC2=O)cc(OC)c1OC (stereo not drawn) [Compound 1-1, (E)-2-(3-oxo-3,4-dihydro-2H-benzo[B][1,4]thiazin-2-yl)-N′-(3,4,5-trimethoxybenzylidene)acetohydrazide]

Compound: COc1ccc2nc(C)cc(SCC(=O)NN=Cc3cc(OC)c(OC)c(OC)c3)c2c1 [Compound 5-184]
novel object recognition performance (C57BL/6 male mice [6]): able to restore

IC50 [3]: ≤ 1000 nM
Compound: CCOc1ccc(/C=N/NC(=O)CSc2nc3ccccc3n2Cc2ccccc2)cc1OC [Compound 4-1, (E)-2-(1-benzyl-1H-benzo[d]imidazol-2-ylthio)-N′-(4-ethoxy-3-methoxybenzylidene)acetohydrazide]

Compound: O=C(CCCN1CCC(O)(c2ccc(Cl)cc2)CC1)c1ccc(F)cc1 [haloperidol, reference compound]
hyperactivity induced by PCP (C57BL/6 male mice [1]; [8]): significantly reduce | stereotypy induced by PCP (C57BL/6 male mice [1]; [8]): significantly reduce | number of avoidance response (C57BL/6 male mice [2]; 0.15 mg/kg i.p., tested 20 min later, 30 trials, p<0.001): significantly reduces
